What was measured:
[1] = test system: Aorta; assay: Inhibition of norepinephrine-induced contraction in Wistar rat aorta assessed as contraction at 1 uM preincubated 15 mins before addition of norepinephrine relative to control; assay type: functional; set-up: scale not given: the % may be the effect or the level left
[2] = test system: Aorta; assay: Inhibition of KCl-induced contraction in Wistar rat aorta assessed as contraction at 1 uM preincubated 15 mins before addition of KCl relative to control; assay type: functional; set-up: scale not given: the % may be the effect or the level left
[3] = Induction of rabbit platelet aggregation at 300 uM by turbidimetric method; assay type: cell-based, Oryctolagus cuniculus
[4] = test system: Aorta; assay: Inhibition of norepinephrine-induced contraction in Wistar rat aorta assessed as contraction at 120 uM preincubated 15 mins before addition of norepinephrine relative to control; assay type: functional; set-up: scale not given: the % may be the effect or the level left
[5] = test system: Aorta; assay: Inhibition of KCl-induced contraction in Wistar rat aorta assessed as contraction at 120 uM preincubated 15 mins before addition of KCl relative to control; assay type: functional; set-up: scale not given: the % may be the effect or the level left
[6] = test system: Platelet; assay: Inhibition of arachidonic acid-induced rabbit platelet aggregation assessed as aggregation at 300 uM preincubated 3 mins before arachidonic acid challenge by turbidimetric method; assay type: functional, Oryctolagus cuniculus; set-up: scale not given: the % may be the effect or the level left
[7] = test system: Platelet; assay: Inhibition of collagen-induced rabbit platelet aggregation assessed as aggregation at 300 uM preincubated 3 mins before collagen challenge by turbidimetric method; assay type: functional, Oryctolagus cuniculus; set-up: scale not given: the % may be the effect or the level left
[8] = test system: Aorta; assay: Inhibition of norepinephrine-induced contraction in Wistar rat aorta assessed as contraction at 9 uM preincubated 15 mins before addition of norepinephrine relative to control; assay type: functional; set-up: scale not given: the % may be the effect or the level left
[9] = test system: Aorta; assay: Inhibition of KCl-induced contraction in Wistar rat aorta assessed as contraction at 9 uM preincubated 15 mins before addition of KCl relative to control; assay type: functional; set-up: scale not given: the % may be the effect or the level left
[10] = test system: Platelet; assay: Inhibition of arachidonic acid-induced rabbit platelet aggregation assessed as aggregation at 50 uM by turbidimetric method; assay type: functional, Oryctolagus cuniculus; set-up: scale not given: the % may be the effect or the level left
[11] = test system: Platelet; assay: Inhibition of collagen-induced rabbit platelet aggregation assessed as aggregation at 50 uM by turbidimetric method; assay type: functional, Oryctolagus cuniculus; set-up: scale not given: the % may be the effect or the level left
[12] = test system: Aorta; assay: Inhibition of norepinephrine-induced contraction in Wistar rat aorta assessed as contraction at 60 uM preincubated 15 mins before addition of norepinephrine relative to control; assay type: functional; set-up: scale not given: the % may be the effect or the level left
[13] = test system: Aorta; assay: Inhibition of KCl-induced contraction in Wistar rat aorta assessed as contraction at 60 uM preincubated 15 mins before addition of KCl relative to control; assay type: functional; set-up: scale not given: the % may be the effect or the level left

Activity [3]	SMILES	Activity [4]	Activity [5]	Activity [6]	Activity [7]	also measured
–	COC(=O)C1=C(C)NC(C)=C(C(=O)OC)C1c1ccccc1[N+](=O)[O-] [NIFEDIPINE]	–	–	–	–	Activity [1]: 96.5%; Activity [2]: 0%
Not Active	COc1cc2cc3c4c(cc5c(c4c2cc1OC)OCO5)CCN3C [DEHYDRODICENTRINE]	95.5%	108%	–	–	–
–	COc1cc2c(cc1OC)-c1c3c(cc4c1[C@H](C2)N(C)CC4)OCO3 [DICENTRINE]	–	–	0%	3.1%	Activity [8]: 22.5%; Activity [9]: 77.5%
Not Active	COc1cc2c(cc1OC)-c1c3c(cc4ccnc(c14)C2=O)OCO3 [DICENTRINONE]	112.4%	102.1%	–	–	–
–	CC(=O)Oc1ccccc1C(=O)O [ASPIRIN]	–	–	–	–	Activity [10]: 0%; Activity [11]: 85.4%
–	COc1ccc2c(c1OC)-c1c3c(cc4c1[C@H](C2)N(C)CC4)OCO3	22.9%	55.2%	73%	60.8%	Activity [12]: 68.1%; Activity [13]: 88.5%
